The values below come from patent publication US12460153B2, “Method for transforming an essential oil” (PRANAROM INTERNATIONAL S.A., priority 2019, dated 2025).

The test system of one assay is S. aureus LMG 8064. Nature of the assay: Individual activity: MIC by microdilution. Format: cell-based, Staphylococcus aureus. To be noted: MSSA LMG 8064 strain; PV alone. The source says: (§1) Within the framework of this invention, the individual activity makes reference to the antimicrobial activity exerted by the EO itself. The individual activity may, for example, be evaluated simply by measuring the MIC (minimum inhibitory concentration), which is the lowest concentration sufficient to inhibit, in vitro, the growth of a bacterial strain, after treating different bacterial strains by different EOs transformed or not according to the method of the invention.
(§2) To do this, the stock solutions of EO (EO-C and EO-T) were first diluted in DMSO at the rate of 10 μl EO in 300 μl DMSO, They were agitated and stored at ambient temperature, away from the light, in glass tubes autoclaved with threaded cap. The individual activity of the EOs was measured by the microdilution method in a 96 well tray so as to obtain the MIC, value at which a solution inhibits bacterial growth. The bacterial strains treated were S. aureus LMG 15975 (methicillin-resistant Staphylococcus aureus, hereinafter referred to as MRSA÷), E. coli LMG 8223, E. coli LMG 15862, P. aeruginosa LMG 6395, S. aureus LMG 8064, S. aureus LMG 16217 (methicillin-resistant Staphylococcus aureus, hereinafter referred to as MRSA++), E. faecalis LMG 8222, K. pneumoniae LMG 20218 and E. aerogenes LMG 2094. […]

A further assay concerns S. aureus LMG 16217. The assay is described as follows: Individual activity: MIC of antibiotic alone, microdilution. Format: cell-based, Staphylococcus aureus. To be noted: S. aureus LMG 16217 (MRSA++). As for the experimental part:
[…] The individual activity may, for example, be evaluated simply by measuring the MIC (minimum inhibitory concentration), which is the lowest concentration sufficient to inhibit, in vitro, the growth of a bacterial strain, after treating different bacterial strains by different EOs transformed or not according to the method of the invention.
To do this, the stock solutions of EO (EO-C and EO-T) were first diluted in DMSO at the rate of 10 μl EO in 300 μl DMSO, They were agitated and stored at ambient temperature, away from the light, in glass tubes autoclaved with threaded cap. The individual activity of the EOs was measured by the microdilution method in a 96 well tray so as to obtain the MIC, value at which a solution inhibits bacterial growth. The bacterial strains treated were S. aureus LMG 15975 (methicillin-resistant Staphylococcus aureus, hereinafter referred to as MRSA÷), E. coli LMG 8223, E. coli LMG 15862, P. aeruginosa LMG 6395, S. aureus LMG 8064, S. aureus LMG 16217 (methicillin-resistant Staphylococcus aureus, hereinafter referred to as MRSA++), E. faecalis LMG 8222, K. pneumoniae LMG 20218 and E. aerogenes LMG 2094. Inocula of the bacterial strains were prepared by placing colonies of 18-24 hours of strains suspended in a sterile physiological solution (NaCl 0.85%). These inocula were then adjusted and diluted so as to obtain a final concentration of 5×10^5 CFU/ml. Concerning the test solutions, 300 μl of stock solutions of EO (diluted in DMSO) were added to 4.7 ml culture medium (for example to Mueller Hinton Broth), so as to obtain a solution of EO of 2 mg/ml which was then diluted in series by half in multi-well trays. The final percentage of DMSO in the wells is less than 5%. After inoculation, the multi-well trays were incubated for 18-24 hours at 37° C. and the presence of bacteria was viewed by adding methyl tetrazolium (MU).

Assay [1] has as its system Staphylococcus aureus LMG 15975. The assay is described as follows: Individual activity: MIC by microdilution in 96-well tray. To be noted: S. aureus LMG 15975 (MRSA+); substance alone. Format: cell-based.
Text: as §1, §2

For the compound `CC1(C)S[C@@H]2[C@H](NC(=O)COc3ccccc3)C(=O)N2[C@H]1C(=O)O` [PV, penicillin V], the “MIC of PV” value in the assay with S. aureus LMG 8064 stood at 0.015 µg/mL. Also, the “MIC of the antibiotic on this strain” value in the assay on S. aureus LMG 16217 amounted to 64 µg/mL. Moreover, in assay [1], the “Individual activity MIC: PV/EO” value was determined as 4 µg/mL. Turning to `CC1(C)S[C@@H]2[C@H](NC(=O)[C@H](N)c3ccc(O)cc3)C(=O)N2[C@H]1C(=O)O` [amoxicillin], in the assay with S. aureus LMG 16217, the “MIC of the antibiotic on this strain” value stood at 64 µg/mL. Turning to `CC1(C)S[C@@H]2[C@H](NC(=O)Cc3ccccc3)C(=O)N2[C@H]1C(=O)O` [penicillin G], the “MIC of the antibiotic on this strain” value in the assay on S. aureus LMG 16217 was 64 µg/mL.
